Several values for one entry are separate records, joined by “and”; a condition that tells them apart may be missing. Equal entries are not always repeated.
Target: T1, human GPR40 (Homo sapiens, UniProt O14842)
T1 construct: expressed in transfected cells
Test: GPR40 calcium flux assay (hGPR40 Ca2+ Assay)
Format: cell-based
Details: transfected HEK293 cells stably expressing human GPR40; Fluo 8 calcium dye; multiple values = repeated testing; read-out: hGPR40 Ca^2+ Assay EC50
Method: Compounds were tested in a calcium flux assay using transfected HEK293 cells stably expressing either human GPR40 or rat GPR40. Human GPR40 expressing cells were cultured in DMEM-High Glucose media supplemented with 10% fetal bovine serum, 1× L-Glutamine, 1× Penicillin/Streptomycin and 500 μg/mL G418. Rat GPR40 expressing cells were cultured in DMEM-High Glucose media supplemented with 10% fetal bovine serum and 1 μg/mL puromycin. Cells were plated into poly-D-lysine coated 384-well plates and cultured overnight in a 37° C. humidified tissue culture incubator under 5% CO2/[…] atmosphere. On the day of the experiment, the culture media was replaced with assay buffer (HBSS, 20 mM HEPES, 0.1% BSA) and the cells incubated at 37° C. for 1 h. Calcium-sensitive fluorescent dye (Fluo 8 No-Wash Calcium Dye, ABD Bioquest) was then added and the cells incubated for another 30 min at 37° C. followed by 15 min at room temperature while protected from the light. The cell plate and a plate of diluted compounds of Formula (III) were loaded into a fluorescent plate reader that added compounds onto the cells while measuring the fluorescence intensity of each well. The plate reader recorded fluorescence intensity at 1 second intervals for 8 min and provided the data for analysis in an Excel format. EC50 values were calculated using Prism (GraphPad) software.

T1 sequence (O14842 whole entry): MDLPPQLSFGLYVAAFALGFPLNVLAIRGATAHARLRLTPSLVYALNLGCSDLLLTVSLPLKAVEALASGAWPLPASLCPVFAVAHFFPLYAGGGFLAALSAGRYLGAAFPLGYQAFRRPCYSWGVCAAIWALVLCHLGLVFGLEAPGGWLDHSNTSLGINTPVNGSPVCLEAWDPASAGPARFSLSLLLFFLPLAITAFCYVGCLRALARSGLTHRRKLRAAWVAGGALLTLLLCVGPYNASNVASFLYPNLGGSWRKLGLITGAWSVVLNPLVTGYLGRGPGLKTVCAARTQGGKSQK

SMILES: COc1ccc(F)c(-n2nnc(COc3cccc([C@@H](CC(=O)O)C4CC4)c3)c2-c2ccc(C(C)(C)C)s2)c1 [Cpd 92, (3S)-3-[3-[[5-(5-tert-butyl-2-thienyl)-1-(2-fluoro-5-methoxy-phenyl)triazol-4-yl]methoxy]phenyl]-3-cyclopropyl-propanoic acid]
- EC50: 10 nM and 9 nM

SMILES: COc1ccc(F)c(-n2cnc(COc3cccc([C@@H](CC(=O)O)C4CC4)c3)c2CC(C)C)c1 [Cpd 93, (3S)-3-cyclopropyl-3-[3-[[1-(2-fluoro-5-methoxy-phenyl)-5-isobutyl-imidazol-4-yl]methoxy]phenyl]propanoic acid]
- EC50: 136 nM and 132 nM

SMILES: COc1ccc(F)c(-n2ncc(COc3cccc([C@@H](CC(=O)O)C4CC4)c3)c2-c2ccc(C)s2)c1 [Cpd 94, (3S)-3-cyclopropyl-3-[3-[[1-(2-fluoro-5-methoxy-phenyl)-5-(5-methyl-2-thienyl)pyrazol-4-yl]methoxy]phenyl]propanoic acid]
- EC50: 121 nM and 60 nM

SMILES: COc1ccc(F)c(-n2ncc(COc3cccc([C@@H](CC(=O)O)C4CC4)c3)c2-c2ccc(F)cc2F)c1 [Cpd 95, (3S)-3-cyclopropyl-3-[3-[[5-(2,4-difluorophenyl)-1-(2-fluoro-5-methoxy-phenyl)pyrazol-4-yl]methoxy]phenyl]propanoic acid]
- EC50: 65 nM and 55 nM

SMILES: COc1ccc(F)c(-n2ncc(COc3cccc([C@@H](CC(=O)O)C4CC4)c3)c2-c2cc(C)cc(C)c2)c1 [Cpd 96, (3S)-3-cyclopropyl-3-[3-[[5-(3,5-dimethylphenyl)-1-(2-fluoro-5-methoxy-phenyl)pyrazol-4-yl]methoxy]phenyl]propanoic acid]
- EC50: 25 nM and 23 nM

SMILES: COc1ccc(F)c(-n2nnc(COc3cccc([C@@H](CC(=O)O)C4CC4)c3)c2OC2CCCCC2)c1 [Cpd 97, (3S)-3-[3-[[5-(cyclohexoxy)-1-(2-fluoro-5-methoxy-phenyl)triazol-4-yl]methoxy]phenyl]-3-cyclopropyl-propanoic acid]
- EC50: 13 nM and 8 nM

SMILES: COc1ccc(F)c(-n2nnc(COc3cccc([C@@H](CC(=O)O)C4CC4)c3)c2OC(C)C)c1 [Cpd 98, (3S)-3-cyclopropyl-3-[3-[[1-(2-fluoro-5-methoxy-phenyl)-5-isopropoxy-triazol-4-yl]methoxy]phenyl]propanoic acid]
- EC50: 47 nM and 36 nM
